Target: T1, PSMA (Homo sapiens, UniProt Q04609)
T1 construct: expressed in transfected cells; host or cells: PC3pip cells (PC3 retrovirally transduced with PSMA), from Dr. Michel Sadelain, MSKCC
Experiment: Competition binding studies, Example 2
Protocol: PC3pip cells ([…]) was suspended in 200 μL of 50 mM Tris buffer, pH 7.5. The cells were incubated at 37° C. with different concentrations of PSMA-1-MMAE-IR700 or ZJ24 in the presence of 12 nM of 3H-ZJ24 for 1 h. The cells were then washed 3 times with cold PBS and cell-associated radioactivity was measured by scintillation counting. The concentration required to inhibit 50% of the binding (IC50) was determined by GraphPad Prism 3.0. Studies were performed in triplicate.

T1 sequence (Q04609 whole entry): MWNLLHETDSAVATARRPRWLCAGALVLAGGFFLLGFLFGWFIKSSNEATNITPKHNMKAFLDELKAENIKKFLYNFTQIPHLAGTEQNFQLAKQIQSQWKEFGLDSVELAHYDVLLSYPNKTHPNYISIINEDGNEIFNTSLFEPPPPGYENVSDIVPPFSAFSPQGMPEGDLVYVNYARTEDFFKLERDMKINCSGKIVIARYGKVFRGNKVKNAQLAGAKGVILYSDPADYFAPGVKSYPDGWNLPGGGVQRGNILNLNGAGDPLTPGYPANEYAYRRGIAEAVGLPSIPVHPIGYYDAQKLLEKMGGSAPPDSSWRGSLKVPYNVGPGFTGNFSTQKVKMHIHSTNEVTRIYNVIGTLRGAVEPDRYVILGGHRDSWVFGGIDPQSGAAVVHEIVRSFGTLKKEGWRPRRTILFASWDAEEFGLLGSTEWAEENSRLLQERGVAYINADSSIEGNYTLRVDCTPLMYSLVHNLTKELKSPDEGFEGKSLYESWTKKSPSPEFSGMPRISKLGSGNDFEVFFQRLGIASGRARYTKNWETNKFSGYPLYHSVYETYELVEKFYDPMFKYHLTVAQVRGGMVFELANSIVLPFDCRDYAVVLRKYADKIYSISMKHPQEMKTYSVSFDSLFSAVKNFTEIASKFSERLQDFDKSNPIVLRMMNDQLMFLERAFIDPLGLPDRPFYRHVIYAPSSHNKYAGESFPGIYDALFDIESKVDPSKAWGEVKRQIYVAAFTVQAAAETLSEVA

## CC[C@H](C)[C@@H]([C@@H](CC(=O)N1CCC[C@H]1[C@H](OC)[C@@H](C)C(=O)N[C@H](C)[C@@H](O)c1ccccc1)OC)N(C)C(=O)[C@@H](NC(=O)[C@H](C(C)C)N(C)C(=O)OCc1ccc(NC(=O)[C@H](CCCNC(N)=O)NC(=O)[C@@H](NC(=O)CCCCCN2C(=O)CC(SC[C@H](NC(=O)[C@H](CCC(=O)O)NC(=O)[C@H](CCC(=O)O)NC(=O)[C@H](CCC(=O)O)NC(=O)CCCCCNC(=O)[C@H]3CC[C@H](CNC(=O)CC[C@H](NC(=O)N[C@@H](CCC(=O)O)C(=O)O)C(=O)O)CC3)C(=O)NCCCCCC(=O)N[C@@H](CCCCNC(=O)CCCCCNC(=O)OCCCOc3cccc4c5n6c(c34)=NC3=NC(=Nc4c7ccccc7c(n4[Si]6(O[Si](C)(C)CCC[N+](CCCS(=O)(=O)[O-])(CCCS(=O)(=O)O)CCCS(=O)(=O)O)O[Si](C)(C)CCC[N+](CCCS(=O)(=O)[O-])(CCCS(=O)(=O)O)CCCS(=O)(=O)O)N=C4N=C(N=5)c5ccccc54)c4ccccc43)C(N)=O)C2=O)C(C)C)cc1)C(C)C (stereo partly shown) [PSMA-1-MMAE-IR700]
  binding relative to ZJ24: 4.4 fold

Source: patent publication US20250332265A1, “PSMA TARGETED CONJUGATE COMPOUNDS AND USES THEREOF” (priority 2021, published 2025)
